Source: patent publication US11613525B2 (CTXT PTY LIMITED, priority 2018, dated 2023)

Columns and labels:
[1] = target: huSTING (HAQ) (Homo sapiens (Human), UniProt Q86WV6, G230A/H232R/R293Q/R71H); experiment: THP-1 reporter cell line assay, THP-1 STING Lucia ISG cells; format: cell-based; settings: THP-1 STING Lucia ISG cells; 24 h; top concentration 50 μM; read-out: Cellular EC50 huSTING (HAQ)
[2] = target: T1, human STING (HAQ) (Homo sapiens, UniProt Q86WV6, G230A/H232R/R293Q); experiment: biochemical; format: binding; settings: for DSF huSTING (HAQ) ΔTm (° C.): 1 μM protein, compound at 100 μM
T1 sequence (Q86WV6 whole entry G230A/H232R/R293Q, looked up): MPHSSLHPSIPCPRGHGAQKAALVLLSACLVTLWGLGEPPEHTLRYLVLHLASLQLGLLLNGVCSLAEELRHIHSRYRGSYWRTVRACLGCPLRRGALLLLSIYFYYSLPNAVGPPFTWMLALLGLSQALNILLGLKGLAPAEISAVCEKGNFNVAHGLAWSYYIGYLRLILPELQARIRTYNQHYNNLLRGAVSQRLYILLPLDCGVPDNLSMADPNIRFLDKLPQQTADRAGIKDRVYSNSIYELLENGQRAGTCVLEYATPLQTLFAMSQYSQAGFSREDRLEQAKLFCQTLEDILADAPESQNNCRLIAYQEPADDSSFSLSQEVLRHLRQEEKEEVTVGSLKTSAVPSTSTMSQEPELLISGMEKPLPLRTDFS
Protocol: (§1) DSF monitors thermal unfolding of protein in the presence of a fluorescent dye and is typically performed using a real-time PCR instrument. The temperature at which a protein unfolds is measured by an increase in the fluorescence of a dye with affinity for hydrophobic parts of the protein that are gradually exposed during unfolding. The fluorescence of the dye is quenched in aqueous environments, but when the dye associates with hydrophobic sites on the unfolded protein, its fluorescence increases. The fluorescence intensity is plotted as a function of the temperature, generating a sigmoidal curve that can be described by a two-state transition. The inflection point of the transition curve (Tm) is calculated using simple equations such as that of Boltzman.
(§2) Sealed plates were then placed into a Bio-Rad CFX96/C1000 thermocycler and FRET scanning mode (λ^excitation of 490 nm and reads at λ^emission of 570 nm) was used to measure fluorescence intensity. […] The melting point (Tm) obtained for STING protein alone was subtracted from Tm obtained for protein incubated with ligand to generate ΔTm values listed in the table below.
(§3) These additional compounds were tested as described above, however the protein concentration was 2 μM.

[3] = target: T1, human STING (HAQ); settings: read-out: SPR (HAQ) KD; 25° C.
[4] = target: T2, huSTING (WT) (Homo sapiens (Human), UniProt Q86WV6, H232R); experiment: Differential scanning fluorimetry (DSF), huSTING (WT); format: binding; settings: read-out: DSF huSTING (WT) ΔTm (° C.)
Protocol: as §1, §2, §3
Target sequence in this assay (Q86WV6 other isoform, or with tags, fused parts or gaps, stated change not applied): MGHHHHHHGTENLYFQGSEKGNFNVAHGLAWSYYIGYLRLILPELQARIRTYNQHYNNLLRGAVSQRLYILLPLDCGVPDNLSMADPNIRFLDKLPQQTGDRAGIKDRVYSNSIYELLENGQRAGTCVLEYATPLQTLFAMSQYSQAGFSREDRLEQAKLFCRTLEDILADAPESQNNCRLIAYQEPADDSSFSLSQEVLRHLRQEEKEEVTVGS

[5] = target: T2, huSTING (WT); experiment: THP-1 reporter cell line assay, THP-1-Dual KI-hSTING-R232 cells; format: cell-based; settings: read-out: Cellular EC50 huSTING (WT)
Target sequence in this assay (Q86WV6 whole entry H232R): as the sequence (Q86WV6 whole entry G230A/H232R/R293Q, looked up) above, with A230G, Q293R counted along it

Sequence of huSTING (HAQ) (Q86WV6 whole entry R71H/G230A/H232R/R293Q): as the sequence (Q86WV6 whole entry G230A/H232R/R293Q, looked up) above, with R71H counted along it

SMILES	EC50 [1] [µM]	DSF huSTING (HAQ) ΔTm (° C.) [2] [°C]	Kd [3] [µM]	ΔTm at 100 µM [4] [°C]	EC50 [5] [µM]	ΔTm at 100 µM ([2]; read-out: DSF huSTING (HAQ) ΔTm (° C.)) [°C]
NC(=O)c1ccc(OCc2c(C(=O)O)sc3cccc(Cl)c23)cn1 [Example 46, 3-(((6-Carbamoylpyridin-3-yl)oxy)methyl)-4-chlorobenzo[b]thiophene-2-carboxylic acid]	> 50	7.26	9.7	1.77	> 50	–
CCOC(=O)c1sc2cccc(F)c2c1CCc1ccc(C(N)=O)cc1 [Example 87, Ethyl 3-(4-carbamoylphenethyl)-4-fluorobenzo[b]thiophene-2-carboxylate]	> 50	0.54	3000	–	> 50	–
NC(=O)c1ccc(OCc2c(C(=O)O)sc3cccc(C4CC4)c23)cc1 [Example 61, 3-((4-Carbamoylphenoxy)methyl)-4-cyclopropylbenzo[b]thiophene-2-carboxylic acid]	39.6	14.62	0.83	5.68	> 50	–
NC(=O)c1ccc(OCc2c(C(=O)O)sc3ccc(Cl)cc23)cc1 [Example 14, 3-((4-Carbamoylphenoxy)methyl)-5-chlorobenzo[b]thiophene-2-carboxylic acid]	> 50	0.09	120	-4.26	> 50	–
NC(=O)c1ccc(OCc2c(C(=O)O)sc3cccc(F)c23)c(F)c1 [Example 59, 3-((4-carbamoyl-2-fluorophenoxy)methyl)-4-fluorobenzo[b]thiophene-2-carboxylic acid]	> 50	7.31	15.2	0.54	> 50	–
NC(=O)c1cc(F)c(OCc2c(C(=O)O)sc3cccc(Cl)c23)c(Br)c1 [Example 71, 3-((2-Bromo-4-carbamoyl-6-fluorophenoxy)methyl)-4-chlorobenzo[b]thiophene-2-carboxylic acid]	21.4	12.18	2.12	5.11	40.4	–
NC(=O)c1cc(F)c(OCc2c(C(=O)O)sc3cccc(F)c23)c(Br)c1 [Example 56, 3-((2-Bromo-4-carbamoyl-6-fluorophenoxy)methyl)-4-fluorobenzo[b]thiophene-2-carboxylic acid]	> 50	4.48	29	-1.29	> 50	–
N#Cc1cc(C(N)=O)ccc1OCc1c(C(=O)O)sc2cccc(Cl)c12 [Example 44, 3-((4-Carbamoyl-2-cyanophenoxy)methyl)-4-chlorobenzo[b]thiophene-2-carboxylic acid]	–	7.64	7.95	1.3	–	–
NC(=O)c1ccc(OCc2c(C(=O)O)sc3cccc(Br)c23)cc1 [Example 22, 4-Bromo-3-((4-carbamoylphenoxy)methyl)benzo[b]thiophene-2-carboxylic acid]	> 50	17.08	0.755	7.61	41	–
COc1cc(C(N)=O)cc(C)c1OCc1c(C(=O)O)sc2cccc(Cl)c12 [Example 73, 3-((4-carbamoyl-2-methoxy-6-methylphenoxy)methyl)-4-chlorobenzo[b]thiophene-2-carboxylic acid]	–	1.79	67	-1.03	–	–
COc1cc(C(N)=O)ccc1OCc1c(C(=O)O)sc2cccc(Cl)c12 [Example 30, 3-((4-Carbamoyl-2-methoxyphenoxy)methyl)-4-chlorobenzo[b]thiophene-2-carboxylic acid]	36.3	5.4	22.1	-0.32	> 50	–
N#Cc1cccc2sc(C(=O)O)c(COc3ccc(C(N)=O)cc3)c12 [Example 63, 3-((4-Carbamoylphenoxy)methyl)-4-cyanobenzo[b]thiophene-2-carboxylic acid]	–	8.07	9.15	1.88	–	–
COc1cccc2sc(C(=O)O)c(COc3ccc(C(N)=O)cc3)c12 [Example 34, 3-((4-Carbamoylphenoxy)methyl)-4-methoxybenzo[b]thiophene-2-carboxylic acid]	> 50	10.07	2.48	3.76	> 50	–
Cc1cc(OCc2c(C(=O)O)sc3cccc(F)c23)ccc1C(N)=O [Example 54, 3-((4-Carbamoyl-3-methylphenoxy)methyl)-4-fluorobenzo[b]thiophene-2-carboxylic acid]	> 50	2.56	51	-1.28	> 50	–
NC(=O)c1ccc(OCc2c(C(=O)O)sc3ccccc23)cc1 [Example 6, 3-((4-Carbamoylphenoxy)methyl)benzo[b]thiophene-2-carboxylic acid]	> 50	3.33	90	-1.15	> 50	–
Nc1noc2cc(OCc3c(C(=O)O)sc4cccc(Cl)c34)ccc12 [Example 48, 3-(((3-Aminobenzo[d]isoxazol-6-yl)oxy)methyl)-4-chlorobenzo[b]thiophene-2-carboxylic acid]	> 50	1.92	16.3	-4.63	> 50	–
NC(=O)c1ccc(OCc2c(C(=O)O)sc3cc(Cl)ccc23)cc1 [Example 10, 3-((4-carbamoylphenoxy)methyl)-6-chlorobenzo[b]thiophene-2-carboxylic acid]	> 50	1.7	187	-2.34	> 50	–
NC(=O)c1ccc(OCc2c(C(=O)O)sc3cc(F)cc(F)c23)cc1 [Example 32, 3-((4-Carbamoylphenoxy)methyl)-4,6-difluorobenzo[b]thiophene-2-carboxylic acid]	> 50	7.23	7.75	0.63	> 50	–
COc1cc(C(N)=O)cc(OC)c1OCc1c(C(=O)O)sc2cccc(Cl)c12 [Example 42, 3-((4-Carbamoyl-2,6-dimethoxyphenoxy)methyl)-4-chlorobenzo[b]thiophene-2-carboxylic acid]	–	2.83	80.5	-0.64	–	–
NC(=O)c1ccc(OCc2c(C(=O)OCc3ccccc3)sc3cccc(F)c23)cc1 [Example 3, Benzyl 3-((4-carbamoylphenoxy)methyl)-4-fluorobenzo[b]thiophene-2-carboxylate]	2.94	−0.47	3500	–	> 50	–
CCOC(=O)c1sc2cccc(F)c2c1COc1ccc(C(N)=O)cc1F [Example 58, Ethyl 3-((4-carbamoyl-2-fluorophenoxy)methyl)-4-fluorobenzo[b]thiophene-2-carboxylate]	9.19	–	> 10000	–	27.7	0.43
